Target: T1, Diacylglycerol O-acyltransferase 2 (Homo sapiens, UniProt Q96PD7)
T1 sequence (Q96PD7 whole entry): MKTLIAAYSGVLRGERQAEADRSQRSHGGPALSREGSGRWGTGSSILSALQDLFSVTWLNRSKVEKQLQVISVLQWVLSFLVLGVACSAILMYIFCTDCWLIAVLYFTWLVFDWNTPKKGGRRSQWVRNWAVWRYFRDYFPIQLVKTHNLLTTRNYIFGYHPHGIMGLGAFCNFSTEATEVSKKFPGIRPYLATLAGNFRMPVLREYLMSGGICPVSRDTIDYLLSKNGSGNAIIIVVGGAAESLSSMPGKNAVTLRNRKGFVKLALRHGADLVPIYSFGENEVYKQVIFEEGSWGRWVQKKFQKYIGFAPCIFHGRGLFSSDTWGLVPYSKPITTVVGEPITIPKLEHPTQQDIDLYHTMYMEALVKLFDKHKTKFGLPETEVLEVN
Experiment: Enzymatic Activity Assay: DGAT2 activity was determined by measuring the amount of enzymatic product triolein (1,2,3-Tri(cis-9-octadecenoyl)glycerol) using the membrane prep mentioned above. The assay was carried out in deep well 384 plates in a final volume of 40 μL at room temperature. The assay mixture contained the following: assay buffer (100 mM Tris.Cl, pH 7.0, 20 mM MgCl2, 5% ethanol), 25 μM of diolein, 10 μM of oleoyl-CoA and 10 ng/μL of DGAT2 membrane.

IC50: 205 nM
Compound: CC(C)(C)OC(=O)N1C[C@@H](O)[C@H](NC(=O)c2ccc3c(-c4ccccc4Cl)nn(-c4ccc(F)cc4)c3c2)C1

— ChEMBL document CHEMBL5728709, “Indazole derivatives useful as inhibitors of diacylglyceride O-acyltransferase 2” (2021)
